Numbers after ± are expanded uncertainties.
Experiments:
[1] = Crystal; DSC
[2] = Molar enthalpy of transition or fusion; conditions: Crystal; DSC

Structure (SMILES) | Triple point temperature [1] [K] | Molar enthalpy of transition or fusion [2] [kcal/mol]
c1ccc2cc3cc4ccccc4cc3cc2c1 [2,3-benzanthracene] | 623.75 ± 1.2 | 8.94 ± 0.908
c1ccc(N(c2ccc(-c3ccc(N(c4ccccc4)c4cccc5ccccc45)cc3)cc2)c2cccc3ccccc23)cc1 [N,N'-di(1-naphthyl)-N,N'-diphenyl benzidine] | 551.75 ± 1.2 | 14.1 ± 1.43

From the NIST ThermoML archive (doi:10.1021/acs.jced.8b00536)
